These results are taken from patent publication EP0698614A1, “Endothelin-antagonizing peptide” (KYOWA HAKKO KOGYO CO., LTD., priority 1994, dated 1996).

SMILES strings stand for the structures. Read-outs that look alike come from different tables or passages of the source.

For test [1], the target named is T1, endothelin receptor (Bos taurus, UniProt P28088).
T1 construct: the suspension was used as a membrane fraction liquid; from tissue; host or cells: bovine cerebellum membrane fraction
T1 sequence (P28088 27-441): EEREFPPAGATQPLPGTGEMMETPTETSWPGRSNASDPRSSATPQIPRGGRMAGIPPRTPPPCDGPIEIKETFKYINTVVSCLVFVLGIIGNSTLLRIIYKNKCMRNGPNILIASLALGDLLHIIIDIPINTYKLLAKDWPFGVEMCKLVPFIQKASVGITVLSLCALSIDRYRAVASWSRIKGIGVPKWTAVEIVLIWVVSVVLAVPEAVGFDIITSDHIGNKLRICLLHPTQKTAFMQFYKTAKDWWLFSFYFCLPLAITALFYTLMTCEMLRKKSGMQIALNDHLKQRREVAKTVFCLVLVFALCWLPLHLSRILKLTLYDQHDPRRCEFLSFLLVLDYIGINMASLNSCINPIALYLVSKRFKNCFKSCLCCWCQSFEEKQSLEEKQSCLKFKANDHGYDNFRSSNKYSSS
Put plainly: Endothelin receptor binding inhibition (125I-endothelin-1), bovine cerebellum membrane fraction (Test Example 1). The conditions noted are these: read-out: IC₅₀. How it is done: (§1) The resulting solid substance was prepared as a suspension containing 2 mg/ml of protein, and the suspension was used as a membrane fraction liquid. […]

For test [2], the target named is T2, endothelin receptor (Bos taurus, UniProt P21450).
T2 construct: from tissue
T2 sequence (P21450 21-427): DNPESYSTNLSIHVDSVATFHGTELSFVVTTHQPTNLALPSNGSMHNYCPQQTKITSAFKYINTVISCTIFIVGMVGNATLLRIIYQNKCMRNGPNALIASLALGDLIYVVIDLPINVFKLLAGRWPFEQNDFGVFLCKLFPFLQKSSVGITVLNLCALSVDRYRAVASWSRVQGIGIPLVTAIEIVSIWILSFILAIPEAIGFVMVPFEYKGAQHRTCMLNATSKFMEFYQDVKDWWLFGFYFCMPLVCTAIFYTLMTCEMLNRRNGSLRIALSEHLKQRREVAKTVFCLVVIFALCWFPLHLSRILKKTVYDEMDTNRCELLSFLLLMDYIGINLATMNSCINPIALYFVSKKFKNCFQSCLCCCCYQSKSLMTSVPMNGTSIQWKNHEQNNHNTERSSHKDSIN
Put plainly: Endothelin receptor binding inhibition (125I-endothelin-1), bovine lung membrane fraction with RES-701-1 added (Test Example 2). The conditions noted are these: read-out: IC₅₀. How it is done:
as §1

For `COC(=O)[C@H](Cc1c[nH]c2ccccc12)NC(=O)[C@H](Cc1ccc(O)cc1)NC(=O)[C@H](Cc1ccc(O)cc1)NC(=O)[C@H](CC(N)=O)NC(=O)[C@H](Cc1ccccc1)NC(=O)[C@H](Cc1ccccc1)NC(=O)[C@H](Cc1c[nH]c2ccccc12)NC(=O)[C@@H]1CC(=O)NCC(=O)N[C@@H](CC(N)=O)C(=O)N[C@@H](Cc2c[nH]c3ccccc23)C(=O)N[C@@H](Cc2c[nH]cn2)C(=O)NCC(=O)N[C@@H]([C@@H](C)O)C(=O)N[C@@H](C)C(=O)N2CCC[C@H]2C(=O)N1` [(I-1)], the IC50 in test [1] (Concentration causing 50 % inhibition of endothelin-1 binding, bovine cerebellum tissue membrane fraction, 25°C for 2 hours) amounted to […]; in test [2] (Concentration causing 50 % inhibition of endothelin-1 binding, bovine lung tissue membrane fraction, RES-701-1 added at […]), 58 nM.
Consider `C[C@@H]1NC(=O)[C@H]([C@@H](C)O)NC(=O)CNC(=O)[C@H](Cc2c[nH]cn2)NC(=O)[C@H](Cc2c[nH]c3ccccc23)NC(=O)[C@H](CC(N)=O)NC(=O)CNC(=O)C[C@@H](C(=O)N[C@@H](Cc2c[nH]c3ccccc23)C(=O)N[C@@H](Cc2ccccc2)C(=O)N[C@@H](Cc2ccccc2)C(=O)N[C@@H](CC(N)=O)C(=O)N[C@@H](Cc2ccc(O)cc2)C(=O)N[C@@H](Cc2ccc(O)cc2)C(=O)N[C@@H](Cc2c[nH]c3ccccc23)C(N)=O)NC(=O)[C@@H]2CCCN2C1=O` [(I-3)], for which the IC50 in test [1] was 49 nM; in test [2], greater than 490 nM.
